Drawing on BindingDB's records for doi:10.1002/cbic.201600573 (X-Chem Pharmaceuticals, 2017), this text covers IC50 for 3 molecules.

The target in this test is Tyrosine-protein kinase BTK (Homo sapiens, UniProt Q06187). In words: BTK FRET Competitive Binding Assay. The note with it: 30 °C. The protocol: The BTK time-resolved FRET-based competitive binding assay and cell-based BTK assays have been previously described.[Xu et al., J.Pharmacol. Exp. Ther., 341:90-103] For the BTK Omnia kinetic assay used in the mechanism of action experiments, assay reagents were prepared from the Omnia Y peptide 5 kit as follows: kinase reaction buffer was diluted to 1X in dH2O. A 10X substrate (100 μm) was prepared in dH20. ATP was prepared at 1 mM (10×) in dH2O, and 2 mM (10×) DTT was prepared in dH2O. A master mix of kinase buffer (10×), peptide (10×), and DTT (10×), all at 2 μL, and dH2O (4 μL) was prepared per well. Untagged BTK enzyme was run in a final concentration of 20 nM. Compounds at varying concentrations and ATP dilutions were prepared in 1V kinase buffer. Final compound DMSO concentration was 1.25 %. In a black non-binding plate (Corning 3676), enzyme (5 μL) was added to compound/ATP mix (5 μL). The plate was incubated for 20 min at 30 °C, then master mix (10 μL) was added into each well and mixed. The plate was incubated at 30 °C, and fluorescence intensity readings at λex=360 nm, λem=485 nm was collected at predetermined intervals on the Tecan M1000.
Chain of Tyrosine-protein kinase BTK (Q06187 whole entry): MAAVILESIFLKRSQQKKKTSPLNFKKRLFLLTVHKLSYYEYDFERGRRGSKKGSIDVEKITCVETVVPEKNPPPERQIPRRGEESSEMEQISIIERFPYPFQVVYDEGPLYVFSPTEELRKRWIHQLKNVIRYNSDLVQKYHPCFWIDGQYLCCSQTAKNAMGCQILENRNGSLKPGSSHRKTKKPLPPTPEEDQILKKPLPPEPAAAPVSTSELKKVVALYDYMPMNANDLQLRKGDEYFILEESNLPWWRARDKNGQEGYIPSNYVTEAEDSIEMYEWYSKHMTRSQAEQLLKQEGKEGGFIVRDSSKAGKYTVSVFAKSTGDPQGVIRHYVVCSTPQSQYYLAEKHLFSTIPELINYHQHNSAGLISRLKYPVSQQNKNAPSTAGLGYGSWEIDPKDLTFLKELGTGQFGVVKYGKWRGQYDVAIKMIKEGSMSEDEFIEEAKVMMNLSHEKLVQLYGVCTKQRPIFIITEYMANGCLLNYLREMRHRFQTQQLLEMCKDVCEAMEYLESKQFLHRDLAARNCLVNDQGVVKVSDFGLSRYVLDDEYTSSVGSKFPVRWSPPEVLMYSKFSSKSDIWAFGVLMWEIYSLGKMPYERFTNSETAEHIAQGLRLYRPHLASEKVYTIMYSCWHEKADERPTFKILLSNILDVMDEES
Take `CNC(=O)C(Cc1c[nH]c2ncccc12)NC(=O)c1n[nH]c2cccc(CNc3ccc(O)cc3Cl)c12` (stereo not drawn) [BTK inhibitor, 1]: the IC50 (usually the concentration needed to halve the response being measured) came out at 2500 nM. That is a single-digit micromolar value. Next, `CNC(=O)Cc1cccc(NC(=O)c2n[nH]cc2CNc2ccccc2[C@H](O)c2ccccc2)c1` [BTK inhibitor, 2]: 210 nM. `CNC(=O)[C@H]1Cc2c([nH]c3ccccc23)CN1C(=O)c1occc1CNc1ccc2nccnc2c1` [BTK inhibitor, 3] registered an IC50 of 0.55 nM.
